The Kinase Knowledgebase extract (Sharma et al. 2016)

Experiments:
[1] = system: EGFR (Human), P00533 [Assessment of Proliferation in EGFR DelE746_A750 Mutant Expressing HCC827 Cells]
[2] = system: EGFR (Human), P00533 [T790M/L858R]; details: nci-h1975
Sequence of EGFR (Human), P00533 [T790M/L858R] (P00533 whole entry T790M/L858R, looked up): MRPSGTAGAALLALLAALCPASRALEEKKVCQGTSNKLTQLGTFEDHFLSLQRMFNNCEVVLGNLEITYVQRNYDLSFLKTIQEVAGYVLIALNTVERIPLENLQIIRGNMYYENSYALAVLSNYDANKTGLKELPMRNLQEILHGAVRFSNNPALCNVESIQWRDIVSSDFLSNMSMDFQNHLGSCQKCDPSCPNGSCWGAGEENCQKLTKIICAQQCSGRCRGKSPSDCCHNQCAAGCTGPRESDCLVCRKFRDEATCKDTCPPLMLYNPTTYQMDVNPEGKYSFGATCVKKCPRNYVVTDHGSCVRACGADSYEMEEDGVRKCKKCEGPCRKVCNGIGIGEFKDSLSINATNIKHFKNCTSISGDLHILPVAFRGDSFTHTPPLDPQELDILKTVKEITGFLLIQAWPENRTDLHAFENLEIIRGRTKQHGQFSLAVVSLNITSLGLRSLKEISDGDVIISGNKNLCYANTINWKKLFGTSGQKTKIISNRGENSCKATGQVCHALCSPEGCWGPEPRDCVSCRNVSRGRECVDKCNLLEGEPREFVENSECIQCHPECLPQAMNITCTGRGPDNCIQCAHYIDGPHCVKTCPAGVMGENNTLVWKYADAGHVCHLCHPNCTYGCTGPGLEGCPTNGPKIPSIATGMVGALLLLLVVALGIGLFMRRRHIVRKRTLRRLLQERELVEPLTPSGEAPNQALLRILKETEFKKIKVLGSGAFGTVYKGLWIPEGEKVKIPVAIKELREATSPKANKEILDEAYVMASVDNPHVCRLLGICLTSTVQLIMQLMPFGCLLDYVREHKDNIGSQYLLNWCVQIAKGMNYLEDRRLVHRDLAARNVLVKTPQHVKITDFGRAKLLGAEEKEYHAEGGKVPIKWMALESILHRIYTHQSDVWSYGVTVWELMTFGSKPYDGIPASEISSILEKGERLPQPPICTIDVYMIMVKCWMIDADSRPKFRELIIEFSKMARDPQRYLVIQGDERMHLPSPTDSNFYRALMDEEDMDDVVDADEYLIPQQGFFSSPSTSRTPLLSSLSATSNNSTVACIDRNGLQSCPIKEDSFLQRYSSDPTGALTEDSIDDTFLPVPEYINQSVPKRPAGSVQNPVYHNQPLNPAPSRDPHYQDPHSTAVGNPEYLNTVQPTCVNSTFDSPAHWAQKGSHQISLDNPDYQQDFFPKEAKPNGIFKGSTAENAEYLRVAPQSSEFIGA

Sequence of EGFR (Human), P00533 [Assessment of Proliferation in EGFR DelE746_A750 Mutant Expressing HCC827 Cells] (P00533 whole entry, looked up, stated change not applied): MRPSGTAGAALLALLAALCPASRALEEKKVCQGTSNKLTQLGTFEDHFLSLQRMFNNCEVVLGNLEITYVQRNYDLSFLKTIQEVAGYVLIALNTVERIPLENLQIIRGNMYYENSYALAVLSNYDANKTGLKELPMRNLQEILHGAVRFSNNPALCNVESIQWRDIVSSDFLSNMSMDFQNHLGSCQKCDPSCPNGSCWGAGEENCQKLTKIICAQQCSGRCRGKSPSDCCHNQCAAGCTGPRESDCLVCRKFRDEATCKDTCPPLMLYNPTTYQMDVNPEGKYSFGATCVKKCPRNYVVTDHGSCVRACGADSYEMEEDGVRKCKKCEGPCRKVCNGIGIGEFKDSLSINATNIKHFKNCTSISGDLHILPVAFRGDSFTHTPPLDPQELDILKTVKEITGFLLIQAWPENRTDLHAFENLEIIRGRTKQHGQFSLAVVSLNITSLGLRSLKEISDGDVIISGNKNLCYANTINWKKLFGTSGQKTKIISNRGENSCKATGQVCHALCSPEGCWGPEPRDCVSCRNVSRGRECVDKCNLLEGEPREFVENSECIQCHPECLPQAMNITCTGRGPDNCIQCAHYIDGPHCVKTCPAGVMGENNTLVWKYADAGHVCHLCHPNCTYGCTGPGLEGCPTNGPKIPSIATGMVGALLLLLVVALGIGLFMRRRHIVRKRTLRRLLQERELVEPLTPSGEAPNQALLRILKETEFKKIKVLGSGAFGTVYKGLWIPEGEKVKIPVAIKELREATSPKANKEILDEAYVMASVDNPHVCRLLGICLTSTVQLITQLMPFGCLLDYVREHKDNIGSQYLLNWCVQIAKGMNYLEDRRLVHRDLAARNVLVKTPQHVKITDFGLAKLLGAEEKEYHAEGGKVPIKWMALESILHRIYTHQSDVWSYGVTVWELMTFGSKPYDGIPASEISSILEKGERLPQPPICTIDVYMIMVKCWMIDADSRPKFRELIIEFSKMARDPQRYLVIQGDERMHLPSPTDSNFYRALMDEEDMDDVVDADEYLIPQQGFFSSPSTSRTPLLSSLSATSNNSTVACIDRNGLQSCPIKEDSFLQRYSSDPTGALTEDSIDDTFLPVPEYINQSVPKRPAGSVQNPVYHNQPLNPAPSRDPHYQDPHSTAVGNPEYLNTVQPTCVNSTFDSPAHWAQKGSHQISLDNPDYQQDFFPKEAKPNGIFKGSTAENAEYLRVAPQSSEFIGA

Row | Structure (SMILES) | GI50 [1] | GI50 [2]
1 | C=CC(=O)Nc1cccc(Oc2nc(Nc3ccc(CN4CCC(N(C)C)CC4)cc3)nc3ccoc23)c1 | 50 to 100 nM | 50 to 100 nM
2 | C=CC(=O)Nc1cccc(Oc2nc(Nc3ccc(N4CCC(N(C)C)CC4)cc3)nc3ccsc23)c1 | ≤ 50 nM | ≤ 50 nM
3 | C=CC(=O)Nc1cccc(Oc2nc(Nc3ccc(N4CCOCC4)cc3)nc3ccsc23)c1 | 50 to 100 nM | ≤ 50 nM
4 | C=CC(=O)Nc1cccc(Oc2nc(Nc3ccc(C(C)=O)cc3)nc3ccsc23)c1 | ≤ 50 nM | ≤ 50 nM
5 | C=CC(=O)Nc1cccc(Oc2nc(Nc3ccc(N4CCN(CCF)CC4)cc3)nc3ccsc23)c1 | ≤ 50 nM | 50 to 100 nM
6 | C=CC(=O)Nc1cccc(Oc2nc(Nc3ccc(S(=O)(=O)NCCN(C)C)cc3)nc3ccsc23)c1 | ≤ 50 nM | ≤ 50 nM
7 | C=CC(=O)Nc1cccc(Oc2nc(Nc3ccc(N4CCNCC4)c(Cl)c3)nc3ccsc23)c1 | ≤ 50 nM | ≤ 50 nM
8 | C=CC(=O)Nc1cccc(Oc2nc(Nc3ccc(C4CCN(CC)CC4)cc3)nc3ccsc23)c1 | ≤ 50 nM | ≤ 50 nM
9 | C=CC(=O)Nc1ccc(F)c(Oc2nc(Nc3ccc(N4CCN(C)CC4)cc3)nc3ccsc23)c1 | ≤ 50 nM | ≤ 50 nM
10 | C=CC(=O)Nc1cccc(Oc2nc(Nc3ccc(C(=O)N(C)C)cc3)nc3ccsc23)c1 | 50 to 100 nM | 50 to 100 nM
11 | C=CC(=O)Nc1cccc(Oc2nc(Nc3ccc(-n4ccnc4)cc3)nc3ccsc23)c1 | 50 to 100 nM | ≤ 50 nM
12 | C=CC(=O)Nc1cccc(Nc2nc(Nc3ccc(C4CCCN(C)C4)cc3)nc3ccsc23)c1 (stereo unspecified) | ≤ 50 nM | ≤ 50 nM
13 | C=CC(=O)Nc1cccc(Oc2nc(Nc3ccc(CCN4CCCCC4)cc3)nc3ccsc23)c1 | ≤ 50 nM | ≤ 50 nM
14 | C=CC(=O)Nc1cccc(Oc2nc(Nc3ccc(C(=O)NC4CCN(C)CC4)cc3)nc3ccsc23)c1 | ≤ 50 nM | ≤ 50 nM
15 | C=CC(=O)Nc1cccc(Oc2nc(Nc3ccc(NC4CCN(C)CC4)c(F)c3)nc3ccsc23)c1 | ≤ 50 nM | ≤ 50 nM
16 | C=CC(=O)Nc1cccc(Oc2nc(Nc3ccc(N4CCN(S(=O)(=O)CC)CC4)c(F)c3)nc3ccsc23)c1 | 50 to 100 nM | ≤ 50 nM
17 | C=CC(=O)Nc1cccc(Sc2nc(Nc3ccc(N4CCOCC4)c(F)c3)nc3ccsc23)c1 | ≤ 50 nM | ≤ 50 nM
18 | C=CC(=O)Nc1cccc(Oc2nc(Nc3ccc(OCCOC)cc3)nc3ccsc23)c1 | 50 to 100 nM | ≤ 50 nM
19 | C=CC(=O)Nc1cccc(Oc2nc(Nc3ccc(N4CCN(C)CC4)cc3F)nc3ccsc23)c1 | 50 to 100 nM | 50 to 100 nM
20 | C=CC(=O)Nc1cccc(Oc2nc(Nc3ccc(CN4CCC(N5CCOCC5)CC4)cc3)nc3ccsc23)c1 | ≤ 50 nM | ≤ 50 nM
21 | C=CC(=O)Nc1cccc(Oc2nc(Nc3ccc(C4=CCN(C)CC4)cc3)nc3ccsc23)c1 | ≤ 50 nM | ≤ 50 nM
22 | C=CC(=O)Nc1cccc(Oc2nc(Nc3ccc(N4CCN(CC(F)F)CC4)cc3)nc3ccsc23)c1 | ≤ 50 nM | ≤ 50 nM
23 | C=CC(=O)Nc1cccc(Oc2nc(Nc3ccc(C4CCCN(C)C4)c(F)c3)nc3ccsc23)c1 (stereo unspecified) | ≤ 50 nM | ≤ 50 nM
24 | C=CC(=O)Nc1cccc(Oc2nc(Nc3ccc(N4CCC(n5ccnc5)CC4)cc3)nc3ccsc23)c1 | ≤ 50 nM | ≤ 50 nM
25 | C=CC(=O)Nc1cccc(Oc2nc(Nc3ccc(N4CCN(C)CC4)c(F)c3OC)nc3ccsc23)c1 | 50 to 100 nM | ≤ 50 nM
26 | C=CC(=O)Nc1cccc(Oc2nc(Nc3ccc(CCN4CCN(S(C)(=O)=O)CC4)cc3)nc3ccsc23)c1 | ≤ 50 nM | ≤ 50 nM
27 | C=CC(=O)Nc1cccc(Oc2nc(Nc3ccc(C4(N)CC4)cc3)nc3ccsc23)c1 | ≤ 50 nM | ≤ 50 nM

Row | Structure (SMILES) | GI50 [1] | GI50 [2]
28 | C=CC(=O)Nc1cccc(Oc2nc(Nc3ccc(CS(C)(=O)=O)cc3)nc3ccsc23)c1 | ≤ 50 nM | ≤ 50 nM
29 | C=CC(=O)Nc1cccc(Oc2nc(Nc3ccc(N4CCN(CC)CC4)cc3OC)nc3ccsc23)c1 | ≤ 50 nM | ≤ 50 nM
30 | C=CC(=O)Nc1ccc(F)c(Nc2nc(Nc3ccc(N4CCN(C)CC4)cc3)nc3ccsc23)c1 | ≤ 50 nM | 50 to 100 nM
31 | C=CC(=O)Nc1cccc(Oc2nc(Nc3ccc(N4CC(C)OC(C)C4)c(F)c3)nc3ccsc23)c1 (stereo unspecified) | 50 to 100 nM | 50 to 100 nM
32 | C=CC(=O)Nc1cccc(Oc2nc(Nc3ccc(CN4CCC4)cc3)nc3ccsc23)c1 | ≤ 50 nM | ≤ 50 nM
33 | C=CC(=O)Nc1cccc(Oc2nc(Nc3ccc(N4CCN(C)CC4)c(OC)c3)nc3ccoc23)c1 | ≤ 50 nM | ≤ 50 nM
34 | C=CC(=O)Nc1cccc(Oc2nc(Nc3ccc(N4CCN(C)CC4)nc3)nc3ccsc23)c1 | ≤ 50 nM | ≤ 50 nM
35 | C=CC(=O)Nc1cccc(Oc2nc(Nc3ccc(OC4CCN(CC)CC4)cc3)nc3ccsc23)c1 | ≤ 50 nM | ≤ 50 nM
36 | C=CC(=O)Nc1cccc(Oc2nc(Nc3ccc(N4CCC(CO)CC4)cc3)nc3ccsc23)c1 | ≤ 50 nM | 50 to 100 nM
37 | C=CC(=O)Nc1cccc(Oc2nc(Nc3ccc(C(=O)OCCCN(C)C)cc3)nc3ccsc23)c1 | 50 to 100 nM | 50 to 100 nM
38 | C=CC(=O)Nc1cccc(Oc2nc(Nc3ccc(C4CCN(C)CC4)cc3OC)nc3ccsc23)c1 | 50 to 100 nM | ≤ 50 nM
39 | C=CC(=O)Nc1cccc(Oc2nc(Nc3ccc(CN4CCN(C)CC4)nc3)nc3ccsc23)c1 | ≤ 50 nM | 50 to 100 nM
40 | C=CC(=O)Nc1cccc(Oc2nc(Nc3ccc4c(c3)CCCC(=O)N4C)nc3ccsc23)c1 | 50 to 100 nM | 50 to 100 nM
41 | C=CC(=O)Nc1cccc(Nc2nc(Nc3ccc(CCN4CCN(C)CC4)cc3)nc3ccsc23)c1 | 50 to 100 nM | ≤ 50 nM
42 | C=CC(=O)Nc1cccc(Nc2nc(Nc3ccc(CN4CCCCC4)cc3OC)nc3ccsc23)c1 | 50 to 100 nM | 50 to 100 nM
43 | C=CC(=O)Nc1cccc(Nc2nc(Nc3ccc(OCCCN(C)C)cc3)nc3ccsc23)c1 | 50 to 100 nM | 50 to 100 nM
44 | C=CC(=O)Nc1cccc(Oc2nc(Nc3ccc(N4CCC(CN5CCCCC5)CC4)cc3)nc3ccsc23)c1 | ≤ 50 nM | ≤ 50 nM
45 | C=CC(=O)Nc1cccc(Oc2nc(Nc3ccc(CCS(C)(=O)=O)cc3)nc3ccsc23)c1 | 50 to 100 nM | ≤ 50 nM
46 | C=CC(=O)Nc1cccc(Oc2nc(Nc3ccc(C(=O)NC4CCN(C)CC4)c(Cl)c3)nc3ccsc23)c1 | ≤ 50 nM | ≤ 50 nM
47 | C=CC(=O)Nc1cccc(Oc2nc(Nc3ccc(N4CCC(N5CCCC5)CC4)c(F)c3)nc3ccsc23)c1 | ≤ 50 nM | ≤ 50 nM
48 | C=CC(=O)Nc1cccc(Oc2nc(Nc3ccc(N4CCC(N5CCCC5)CC4)c(Cl)c3)nc3ccsc23)c1 | ≤ 50 nM | ≤ 50 nM
49 | C=CC(=O)Nc1cccc(Oc2nc(Nc3ccc(C4CCN(C)CC4)c(F)c3)nc3ccsc23)c1 | ≤ 50 nM | ≤ 50 nM
50 | C=CC(=O)Nc1cccc(Oc2nc(Nc3ccc(C4CCN(C(C)C)CC4)cc3)nc3ccsc23)c1 | ≤ 50 nM | ≤ 50 nM
51 | C=CC(=O)Nc1cccc(Sc2nc(Nc3ccc(N4CCN(C)CC4)cc3)nc3ccsc23)c1 | ≤ 50 nM | ≤ 50 nM
52 | C=CC(=O)Nc1cccc(Oc2nc(Nc3ccc(N4CCN(C)CC4)cn3)nc3ccsc23)c1 | ≤ 50 nM | ≤ 50 nM
53 | C=CC(=O)Nc1cccc(Oc2nc(Nc3ccc(N4CCC(CN(C)C)CC4)cc3)nc3ccsc23)c1 | ≤ 50 nM | ≤ 50 nM
